How the values were obtained:
Assay type in all cases: in vivo
[1] = system: Canada thistle (Cirsium arvense); experiment: Test C postemergence, plant response rating; conditions: for Canada Thistle plant response rating: scale 0 to 100 (0 no effect, 100 complete control)
Outline: (§1)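 Both timings shared one formulation, a non-phytotoxic solvent mixture with surfactant, and a greenhouse period of 13 to 15 d. Preemergence used seeded loam/sand or silt loam soil, postemergence used 2 to 18 cm plants; visual ratings ran from 0 (no effect) to 100 (complete control).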

[2] = system: nightshade (eastern black nightshade, Solanum ptycanthum); experiment: Test C postemergence, plant response rating; conditions: for Nightshade plant response rating: scale 0 to 100 (0 no effect, 100 complete control)
Outline: as §1

[3] = system: pigweed, palmer (palmer pigweed, Amaranthus palmeri); experiment: Test C postemergence, plant response rating; conditions: for Pigweed, Palmer plant response rating: scale 0 to 100 (0 no effect, 100 complete control)
Outline: as §1

[4] = system: johnsongrass (Sorghum halepense); experiment: Test C postemergence, plant response rating; conditions: for Johnsongrass plant response rating: scale 0 to 100 (0 no effect, 100 complete control)
Outline: as §1

[5] = system: field poppy (Papaver rhoeas); experiment: Test C postemergence, plant response rating; conditions: for Field Poppy plant response rating: scale 0 to 100 (0 no effect, 100 complete control)
Outline: as §1

[6] = system: wild mustard (Sinapis arvensis); experiment: Test C postemergence, plant response rating; conditions: for Mustard, Wild plant response rating: scale 0 to 100 (0 no effect, 100 complete control)
Outline: as §1

[7] = system: geranium, cutleaf (cutleaf geranium, Geranium dissectum); experiment: Test C postemergence, plant response rating; conditions: for Geranium, Cutleaf plant response rating: scale 0 to 100 (0 no effect, 100 complete control)
Outline: as §1

[8] = system: windgrass (Apera spica-venti); experiment: Test C postemergence, plant response rating; conditions: for Windgrass plant response rating: 125 g ai/ha, scale 0 to 100 (0 no effect, 100 complete control)
Outline: as §1

[9] = system: buckwheat, wild (wild buckwheat, Polygonum convolvulus); experiment: Test C postemergence, plant response rating; conditions: for Buckwheat, Wild plant response rating: scale 0 to 100 (0 no effect, 100 complete control)
Outline: as §1

[10] = system: surinam grass (Brachiaria decumbens); experiment: Test C postemergence, plant response rating; conditions: for Surinam Grass plant response rating: 125 g ai/ha, scale 0 to 100 (0 no effect, 100 complete control)
Outline: as §1

[11] = system: field violet (Viola arvensis); experiment: Test C postemergence, plant response rating; conditions: for Field Violet plant response rating: scale 0 to 100 (0 no effect, 100 complete control)
Outline: as §1

[12] = system: wild poinsettia (Euphorbia heterophylla); experiment: Test C postemergence, plant response rating; conditions: for Poinsettia, Wild plant response rating: scale 0 to 100 (0 no effect, 100 complete control)
Outline: as §1

[13] = system: speedwell (bird's-eye speedwell, Veronica persica); experiment: Test C postemergence, plant response rating; conditions: for Speedwell plant response rating: scale 0 to 100 (0 no effect, 100 complete control)
Outline: as §1

[14] = system: nightshade (eastern black nightshade, Solanum ptycanthum); experiment: Test C preemergence, plant response rating

FC(F)(F)CCCc1c(Br)cccc1Oc1ncc(Cl)cn1 [Compound 89]
Plant response rating, Canada Thistle ([1]; 16 g ai/ha, scale of 0 to 100): 80
Plant response rating, Canada Thistle ([1]; 31 g ai/ha, scale 0 to 100): 80
Canada Thistle plant response rating ([1]; 62 g ai/ha): 85
Canada Thistle plant response rating ([1]; 125 g ai/ha): 85
Plant response rating, Nightshade ([2]; 16 g ai/ha, scale of 0 to 100): 75
Plant response rating, Nightshade ([2]; 31 g ai/ha, scale 0 to 100): 90
Nightshade plant response rating ([2]; 62 g ai/ha): 95
Nightshade plant response rating ([2]; 125 g ai/ha): 95
Plant response rating, Pigweed, Palmer ([3]; 16 g ai/ha, scale of 0 to 100): 55
Plant response rating, Pigweed, Palmer ([3]; 31 g ai/ha, scale 0 to 100): 75
Pigweed, Palmer plant response rating ([3]; 62 g ai/ha): 80
Pigweed, Palmer plant response rating ([3]; 125 g ai/ha): 85
Plant response rating, Johnsongrass ([4]; 16 g ai/ha, scale of 0 to 100): 5
Plant response rating, Johnsongrass ([4]; 31 g ai/ha, scale 0 to 100): 10
Johnsongrass plant response rating ([4]; 62 g ai/ha): 10
Johnsongrass plant response rating ([4]; 125 g ai/ha): 85
Plant response rating, Field Poppy ([5]; 16 g ai/ha, scale of 0 to 100): 90
Plant response rating, Field Poppy ([5]; 31 g ai/ha, scale 0 to 100): 95
Field Poppy plant response rating ([5]; 62 g ai/ha): 100
Field Poppy plant response rating ([5]; 125 g ai/ha): 100
Plant response rating, Mustard, Wild ([6]; 16 g ai/ha, scale of 0 to 100): 100
Mustard, Wild plant response rating ([6]; 62 g ai/ha): 100
Plant response rating, Geranium, Cutleaf ([7]; 16 g ai/ha, scale of 0 to 100): 35
Plant response rating, Geranium, Cutleaf ([7]; 31 g ai/ha, scale 0 to 100): 35
Geranium, Cutleaf plant response rating ([7]; 62 g ai/ha): 50
Geranium, Cutleaf plant response rating ([7]; 125 g ai/ha): 55
Plant response rating, Windgrass ([8]; 16 g ai/ha, scale of 0 to 100): 10
Plant response rating, Windgrass ([8]; 31 g ai/ha, scale 0 to 100): 10
Windgrass plant response rating [8]: 35
Plant response rating, Buckwheat, Wild ([9]; 16 g ai/ha, scale of 0 to 100): 70
Plant response rating, Buckwheat, Wild ([9]; 31 g ai/ha, scale 0 to 100): 75
Buckwheat, Wild plant response rating ([9]; 62 g ai/ha): 75
Buckwheat, Wild plant response rating ([9]; 125 g ai/ha): 85
Plant response rating, Surinam Grass ([10]; 16 g ai/ha, scale of 0 to 100): 10
Plant response rating, Surinam Grass ([10]; 31 g ai/ha, scale 0 to 100): 10
Surinam Grass plant response rating [10]: 20
Plant response rating, Field Violet ([11]; 16 g ai/ha, scale of 0 to 100): 100
Plant response rating, Field Violet ([11]; 31 g ai/ha, scale 0 to 100): 100
Field Violet plant response rating ([11]; 62 g ai/ha): 100
Field Violet plant response rating ([11]; 125 g ai/ha): 100
Plant response rating, Poinsettia, Wild ([12]; 16 g ai/ha, scale of 0 to 100): 55
Plant response rating, Poinsettia, Wild ([12]; 31 g ai/ha, scale 0 to 100): 60
Poinsettia, Wild plant response rating ([12]; 62 g ai/ha): 80
Poinsettia, Wild plant response rating ([12]; 125 g ai/ha): 90
Plant response rating, Speedwell ([13]; 16 g ai/ha, scale of 0 to 100): 95
Plant response rating, Speedwell ([13]; 31 g ai/ha, scale 0 to 100): 100
Speedwell plant response rating ([13]; 62 g ai/ha): 100
Speedwell plant response rating ([13]; 125 g ai/ha): 100
Plant response rating, Nightshade ([14]; 31 g ai/ha, scale 0 to 100): 75
Plant response rating, Nightshade ([14]; 62 g ai/ha, scale 0 to 100): 65
Plant response rating, Nightshade ([14]; 125 g ai/ha, scale of 0 to 100): 85

O=C(CCC(F)(F)F)c1c(Cl)cccc1Oc1ncc(Cl)cn1 [Compound 107, 1-[2-chloro-6-[(5-chloro-2-pyrimidinyl)oxy]phenyl]-4,4,4-trifluoro-1-butanone]
Plant response rating, Canada Thistle ([1]; 16 g ai/ha, scale of 0 to 100): 80
Plant response rating, Canada Thistle ([1]; 31 g ai/ha, scale 0 to 100): 85
Canada Thistle plant response rating ([1]; 62 g ai/ha): 90
Canada Thistle plant response rating ([1]; 125 g ai/ha): 90
Plant response rating, Nightshade ([2]; 16 g ai/ha, scale of 0 to 100): 75
Plant response rating, Nightshade ([2]; 31 g ai/ha, scale 0 to 100): 90
Nightshade plant response rating ([2]; 62 g ai/ha): 98
Nightshade plant response rating ([2]; 125 g ai/ha): 100
Plant response rating, Pigweed, Palmer ([3]; 16 g ai/ha, scale of 0 to 100): 90
Plant response rating, Pigweed, Palmer ([3]; 31 g ai/ha, scale 0 to 100): 95
Pigweed, Palmer plant response rating ([3]; 62 g ai/ha): 100
Pigweed, Palmer plant response rating ([3]; 125 g ai/ha): 100
Plant response rating, Johnsongrass ([4]; 16 g ai/ha, scale of 0 to 100): 20
Plant response rating, Johnsongrass ([4]; 31 g ai/ha, scale 0 to 100): 10
Johnsongrass plant response rating ([4]; 62 g ai/ha): 35
Johnsongrass plant response rating ([4]; 125 g ai/ha): 98
Plant response rating, Field Poppy ([5]; 16 g ai/ha, scale of 0 to 100): 80
Plant response rating, Field Poppy ([5]; 31 g ai/ha, scale 0 to 100): 98
Field Poppy plant response rating ([5]; 62 g ai/ha): 98
Field Poppy plant response rating ([5]; 125 g ai/ha): 100
Plant response rating, Mustard, Wild ([6]; 16 g ai/ha, scale of 0 to 100): 85
Plant response rating, Mustard, Wild ([6]; 31 g ai/ha, scale 0 to 100): 90
Mustard, Wild plant response rating ([6]; 62 g ai/ha): 95
Mustard, Wild plant response rating ([6]; 125 g ai/ha): 100
Plant response rating, Geranium, Cutleaf ([7]; 16 g ai/ha, scale of 0 to 100): 25
Plant response rating, Geranium, Cutleaf ([7]; 31 g ai/ha, scale 0 to 100): 35
Geranium, Cutleaf plant response rating ([7]; 62 g ai/ha): 60
Geranium, Cutleaf plant response rating ([7]; 125 g ai/ha): 75
Plant response rating, Windgrass ([8]; 16 g ai/ha, scale of 0 to 100): 5
Plant response rating, Windgrass ([8]; 31 g ai/ha, scale 0 to 100): 15
Windgrass plant response rating [8]: 50
Plant response rating, Buckwheat, Wild ([9]; 16 g ai/ha, scale of 0 to 100): 45
Plant response rating, Buckwheat, Wild ([9]; 31 g ai/ha, scale 0 to 100): 75
Buckwheat, Wild plant response rating ([9]; 62 g ai/ha): 75
Buckwheat, Wild plant response rating ([9]; 125 g ai/ha): 100
Plant response rating, Surinam Grass ([10]; 16 g ai/ha, scale of 0 to 100): 10
Plant response rating, Surinam Grass ([10]; 31 g ai/ha, scale 0 to 100): 25
Surinam Grass plant response rating [10]: 35
Plant response rating, Field Violet ([11]; 16 g ai/ha, scale of 0 to 100): 95
Plant response rating, Field Violet ([11]; 31 g ai/ha, scale 0 to 100): 98
Field Violet plant response rating ([11]; 62 g ai/ha): 98
Field Violet plant response rating ([11]; 125 g ai/ha): 100
Plant response rating, Poinsettia, Wild ([12]; 16 g ai/ha, scale of 0 to 100): 70
Plant response rating, Poinsettia, Wild ([12]; 31 g ai/ha, scale 0 to 100): 75
Poinsettia, Wild plant response rating ([12]; 62 g ai/ha): 90
Poinsettia, Wild plant response rating ([12]; 125 g ai/ha): 90
Plant response rating, Speedwell ([13]; 16 g ai/ha, scale of 0 to 100): 100
Plant response rating, Speedwell ([13]; 31 g ai/ha, scale 0 to 100): 100
Speedwell plant response rating ([13]; 62 g ai/ha): 100
Speedwell plant response rating ([13]; 125 g ai/ha): 100
Plant response rating, Nightshade ([14]; 31 g ai/ha, scale 0 to 100): 60
Plant response rating, Nightshade ([14]; 62 g ai/ha, scale 0 to 100): 80
Plant response rating, Nightshade ([14]; 125 g ai/ha, scale of 0 to 100): 90

Reference: US11053204B2, “Pyrimidinyloxy benzene derivatives as herbicides” (FMC Corporation, priority 2015, dated 2021)
